# In US10239916B2, “Controlled modulation of amino acid side chain length of peptide antigens” (Board of Regents, The University of Texas System, priority 2002, dated 2019):
# Where no end group is shown, it is not given here. [ ]: non-standard residue; d: D form. Nle = CCCC[C@H](N)C(=O)O; Nva = CCC[C@H](N)C(=O)O
# Assays:
# T2 cells pulsed with E75 [1] = assay: CTL assay: lysis of peptide-pulsed T2 cells by peptide-induced CTL; format: cell-based, human; settings: for recognition of E75 by variant-induced CTL compared with E75-induced CTL: donor 1, priming; for E75-specific lytic activity of variant-induced CTL compared with E75-CTL: donor 2
# Bcl-2, Bcl-xL, Bad = format: cell-based, human; settings: for up-regulation of Bcl-2 and Bcl-XL: F42SK-CTL restimulated with agonists pulsed on T2
# PBMC [2] = assay: IFN-γ induction in PBMC/T cells stimulated with peptide-pulsed autologous DC (ELISA); format: cell-based, human; parameters: IFN-γ induction at priming compared with E75: dose or concentration left out as unconfirmed; settings: for IFN-γ induction at priming compared with E75: two weak E75-responder donors, […] μM on autologous DC; for IFN-γ at priming compared with E75: donor 1; for increase of IFN-γ at priming over E75: donor 2
# SKOV3.A2 cells = assay: Cold-target inhibition of lysis of SKOV3.A2 by T2-E75; format: cell-based, human
# HLA-A2 = HLA-A2 (Homo sapiens, UniProt P04439, D140Y/D185E/D98H/E176V/E277Q/G131W/G231S/I119V/I121R/I166T/I218V/N151K/N90K/P208A/P217A/Q86G/Q94H/R138H/R169H); assay: Molecular modeling of peptide:HLA-A2 complex, accessible surface area (GETAREA 1.1)
# PBMC [3] = assay: IL-2 induction in PBMC/T cells stimulated with peptide-pulsed autologous DC (ELISA); format: cell-based, human; settings: Donor 3
# CD8+ cells [4] = assay: Expansion and survival of peptide-stimulated T cells (numbers of live / CD8+ cells); format: cell-based, human; settings: for number / survival of stimulated cells at restimulation compared with E75: donor 2; for percentage of live cells: donor 2, 30 days after priming, primed and restimulated
# T2 cells pulsed with E75 [5] = settings: cited from earlier work
# SKOV3.A2 = assay: IFN-γ secretion of S5K-CTL at encounter with ovarian tumor SKOV3.A2; format: cell-based, human; settings: SKOV3.A2 stimulator, IL-12 as costimulator
# Description: (§1) FIGS. 11A-11C. […] FIGS. 11A and 11B, Cold target inhibition of cytolysis of OVA-16 (HLA-A2, HER-2^high). […] E:T ratio was 10:1; the ratio of cold to hot targets was 1:1. C, IFN γ induction. IL-12 was used at 3 IU (300 pg/ml); the responders to SKOV3. A2 stimulator ratio was 40:1.
# (§2) Similar inhibition (38%) was observed against SKOV3.A2 in a 16-h assay. […] The levels of inhibition of lysis indicative of specific recognition were similar to those levels observed with donor 2, E75-CTL, and S5K-CTL (FIG. 8E). S5K-CTL was also tested for the ability to secrete IFN-γ at an encounter with the ovarian tumor SKOV3.A2 and its HLA-A2^− counterpart SKOV3. This was necessary because the tumor and responding lymphocytes shared HLA-A3.
# [6] = system: ovarian tumor OVA-16 (HLA-A2+, HER-2high); assay: Cold-target inhibition of cytolysis of OVA-16 by T2-E75; format: cell-based, human; settings: S5K-CTL
# Description: as §1, §2
# E75+TCR cells = E75+TCR cells determined with E75 dimers (dE75), flow cytometry; format: cell-based, human
# CD8+ cells [7] = assay: Two color FACS (CD62L, CFSE) of peptide-stimulated CD8+ cells; format: cell-based, human; settings: Donor 1 CD8+ cells, 20 additional days in IL-2
substance,measurement,setting,value
"K1FGSL (NLeu)FL (KIFGSL[Nle]FL) [A7.3, 10]",E75 level recognized by induced CTL,T2 cells pulsed with E75 [1]; A7.3-induced CTL-TIL restimulated with A7.3,200 nM
same,exogenous pulsed E75 concentration recognized by induced CTL,"T2 cells pulsed with E75 [1]; Donor 4 (CTL-4), three stimulations",25 nM
same,up-regulation of Bcl-2 and Bcl-XL,"Bcl-2, Bcl-xL, Bad",significantly stronger stimulators for up-regulation of Bcl-2 and Bcl-XL than F42
same,Bcl-xL to Bad ratio,"Bcl-2, Bcl-xL, Bad; S5K-CTL CD8+ cells stimulated 96 h, 25 μg/ml",even higher Bcl-xL to Bad ratios than E75
same,IFN-γ induction at priming compared with E75,PBMC [2],higher levels of IFN-γ than E75
same,inhibition of SKOV3.A2 lysis by T2-E75,"SKOV3.A2 cells; A7.3-induced CTL-TIL, 5 h CTL assay",60%
same,inhibition of lysis of SKOV3-A2 by T2-E75,"SKOV3.A2 cells; CTL-3 primed with E75 and restimulated, T2-E75 at 100 nM",27%
same,change in the surface between E75 and A7.3,HLA-A2,0.036%
same,IL-2 induction at priming,PBMC [3],stronger inducer of IL-2 than A7.2
"A7.2: E75 with Ala7 replaced by norvaline (NVal), 2 CH2 groups extending linearly from Ala7 (KIFGSL[Nva]FL)","number of E75-specific LU, schedule 2×A7.3 to 2×A7.2 relative to 4×A7.3",T2 cells pulsed with E75 [1],two times higher
same,"increase in number of E75-lytic specific effectors, 2×A7.3 to 2×A7.2 vs 4×A7.3",T2 cells pulsed with E75 [1]; 4×2,8 fold
same,E75 level recognized by induced CTL,"T2 cells pulsed with E75 [1]; A7.3-induced, A7.3-restimulated CTL after additional stimulation with A7.2",50 nM
same,sensitivity for E75 relative to E75-induced CTL,T2 cells pulsed with E75 [1]; CTL at 50 nM level,at least 100 fold
same,lytic activity induced in rested A7.3 CTL by restimulation,"T2 cells pulsed with E75 [1]; tested 30 h later, no IL-2",somewhat higher levels of lytic activity
same,IFN-γ induction at priming,PBMC [2]; Donor 3,stronger inducer of IFN-γ
same,IFN-γ response to E75 of primed T cells relative to E75-primed T cells,"PBMC [2]; E75 at 2 μM, within 16 h, Donor 1",3 fold
same,IFN-γ induction,PBMC [2]; cells from donors and ovarian cancer patients which did not respond to E75,higher levels of IFN-γ than A7.3 and G4.3
same,IFN-γ induction at priming compared with E75,PBMC [2],higher levels of IFN-γ than E75
same,"numbers of CD8+ cells, schedule 2×A7.3 to 2×A7.2 relative to 4×A7.3",CD8+ cells [4],4 times
KIFGALAFL [S5A],recognition of E75 by variant-induced CTL compared with E75-induced CTL,T2 cells pulsed with E75 [1],recognized E75 better than CTL induced by E75
same,E75-specific lytic activity of variant-induced CTL compared with E75-CTL,T2 cells pulsed with E75 [1],significantly higher
same,IFN-γ at priming compared with E75,PBMC [2],higher levels of IFN-γ
same,increase of IFN-γ at priming over E75,PBMC [2],100%
same,number / survival of stimulated cells at restimulation compared with E75,CD8+ cells [4],dropped faster
same,percentage of live cells,CD8+ cells [4],decrease in live cells
KIFSGSLAKL [F8K],recognition of E75 by variant-induced CTL compared with E75-induced CTL,T2 cells pulsed with E75 [1],CTL induced by priming with E75 recognized E75 better
same,IFN-γ at priming compared with E75,PBMC [2],lower levels of IFN-γ
KIFGKLAFL [S5K],exogenous pulsed E75 recognized by F42SK-CTL,T2 cells pulsed with E75 [5],5000 ng/mL
same,lysis of T2-E75 by peptide-induced CTL,"T2 cells pulsed with E75 [1]; E75 10 μg/ml, E:T ratio 40:1",25.4 % lysis
same,recognition of E75 by variant-induced CTL compared with E75-induced CTL,T2 cells pulsed with E75 [1],CTL induced by priming with E75 recognized E75 better
same,E75-specific lytic activity of variant-induced CTL compared with E75-CTL,T2 cells pulsed with E75 [1],lower than the recognition by E75-CTL
same,recognition (lysis) of peptide-pulsed T2 by E75-CTL,"T2 cells pulsed with E75 [1]; donor 3 E75-CTL, peptide 50 μg/ml",32%
same,IFN-γ secretion by peptide-induced CTL,SKOV3.A2,high levels of IFN-γ within 20 h
same,up-regulation of Bcl-2 and Bcl-XL,"Bcl-2, Bcl-xL, Bad",slightly stronger up-regulator of Bcl-2 than E75
same,up-regulation of Bcl-2,"Bcl-2, Bcl-xL, Bad; S5K-CTL",slightly stronger up-regulator of Bcl-2 than E75
same,IFN-γ and IL-2 response of S5K-CTL compared with E75,PBMC [2],"higher levels of IFN-γ, but lower levels of IL-2"
same,IFN-γ at priming compared with E75,PBMC [2],higher levels of IFN-γ
same,increase of IFN-γ at priming over E75,PBMC [2],36%
same,IFN-γ induction compared with E75,PBMC [2]; healthy donor responding weakly to E75,higher IFN-γ induction
same,inhibition of lysis of OVA-16 by T2-E75,[6]; 8-h CTL assay,21%
same,inhibition of lysis of OVA-16 by T2-E75,[6]; 16-h assay,45%
same,increase in number of CD8+ cells of S5K-CTL,"CD8+ cells [4]; 50 μg/ml peptide + anti-Fas, 4 days",27%
same,numbers of live cells recovered after stimulation and expansion in IL-2,CD8+ cells [4]; S5K-CTL stimulated with peptide-pulsed T2,2.9 ×10^6 cells
same,increase in number of CD8+ cells of S5K-CTL,"CD8+ cells [4]; […] μg/ml peptide + anti-Fas, 4 days",0.93%
same,number / survival of stimulated cells at restimulation compared with E75,CD8+ cells [4],survived longer than E75-stimulated cells
same,survival of responders,"CD8+ cells [4]; donor 3, after third stimulation",better survival in responders than E75
same,increase in number of CD8+ cells of S5K-CTL,CD8+ cells [4]; in the absence of CH11,no increase in cell number
same,inhibition of lysis of SKOV3.A2 by T2-E75,"SKOV3.A2 cells; S5K-CTL, 16-h assay",38%
same,inhibition of tumor lysis by T2-E75 compared with E75-CTL,"SKOV3.A2 cells; donor 2, E:T 30:1, cold:hot 10:1",inhibited less by T2-E75 than lysis by E75-CTL
same,Bcl-2 levels in small E75+TCR lymphocytes,E75+TCR cells; S5K-CTL,higher in the small lymphocytes
same,MCF of E75+TCR expression in small lymphocytes,E75+TCR cells; S5K-CTL stimulated 1 wk,180
KIFGSLAYL [F8Y],recognition of E75 by variant-induced CTL compared with E75-induced CTL,T2 cells pulsed with E75 [1],CTL induced by priming with E75 recognized E75 better
same,IFN-γ at priming compared with E75,PBMC [2],lower levels of IFN-γ
KIFGGLAFL [S5G],recognition of E75 by variant-induced CTL compared with E75-induced CTL,T2 cells pulsed with E75 [1],recognized E75 better than CTL induced by E75
same,IFN-γ at priming compared with E75,PBMC [2],higher levels of IFN-γ
same,increase of IFN-γ at priming over E75,PBMC [2],64%
same,number / survival of stimulated cells at restimulation compared with E75,CD8+ cells [4],dropped faster
same,percentage of live cells,CD8+ cells [4],decrease in live cells
same,CD62L+ cells in the resulting population,CD8+ cells [7],4.8%
